Laboratory results reported in patent publication US20240360157A1, “TYK2 INHIBITORS” (BIOGEN MA INC., priority 2021, published 2024).
Where a name gives a salt, the structure may show the parent alone.

Tests used:
Format in all cases: biochemical
[1] = biological target: human TYK2 catalytic kinase (JH1) domain (Homo sapiens (Human), UniProt P29597); assay: ADP-Glo Kinase Assay, recombinant TYK2 catalytic kinase (JH1) domain; conditions: recombinant JH1 domain 2 nM, 10 μM ATP, JAK3-974 peptide, mean, read-out: TYK2 biochem IC50 (nM) Mean
Chain of human TYK2 catalytic kinase (JH1) domain (P29597 897-1176): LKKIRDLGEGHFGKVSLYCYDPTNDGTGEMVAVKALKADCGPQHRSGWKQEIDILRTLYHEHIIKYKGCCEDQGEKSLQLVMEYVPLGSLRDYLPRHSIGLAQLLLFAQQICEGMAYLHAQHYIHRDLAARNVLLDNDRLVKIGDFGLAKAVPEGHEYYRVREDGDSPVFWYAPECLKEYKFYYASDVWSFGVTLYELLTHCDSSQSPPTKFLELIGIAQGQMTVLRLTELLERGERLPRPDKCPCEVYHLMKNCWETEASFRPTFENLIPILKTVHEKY
In short: (§1)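 Compounds were titrated in 11 points of 3-fold dilution starting at 10 μM or 1 μM. Enzyme (JAK1 4 nM, JAK2 0.2 nM, JAK3 0.3 nM, TYK2 2 nM) and 50 μM peptide reacted for 100 minutes, followed by ADP-to-luminescence detection; IC50 by 4-parameter fit.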

[2] = biological target: human JAK1 catalytic kinase (JH1) domain (Homo sapiens (Human), UniProt P23458); assay: ADP-Glo Kinase Assay, recombinant JAK1 catalytic kinase (JH1) domain; conditions: recombinant JH1 domain 4 nM, 35 μM ATP, JAK3-342 peptide, mean, read-out: JAK1 biochem IC50 (nM) Mean
Chain of human JAK1 catalytic kinase (JH1) domain (P23458 875-1153): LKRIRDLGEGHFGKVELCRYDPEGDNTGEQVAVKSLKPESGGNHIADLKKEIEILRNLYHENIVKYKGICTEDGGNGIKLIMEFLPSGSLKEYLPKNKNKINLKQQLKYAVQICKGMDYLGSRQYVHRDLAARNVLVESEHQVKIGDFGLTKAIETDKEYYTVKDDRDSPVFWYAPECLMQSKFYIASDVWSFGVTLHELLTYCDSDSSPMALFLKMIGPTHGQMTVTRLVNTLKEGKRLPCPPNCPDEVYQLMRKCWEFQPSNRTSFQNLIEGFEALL
In short: as §1

[3] = biological target: human JAK2 catalytic kinase (JH1) domain (Homo sapiens (Human), UniProt O60674); assay: ADP-Glo Kinase Assay, recombinant JAK2 catalytic kinase (JH1) domain; conditions: recombinant JH1 domain 0.2 nM, 15 μM ATP, JAK3-974 peptide, mean, read-out: JAK2 biochem IC50 (nM) Mean
Chain of human JAK2 catalytic kinase (JH1) domain (O60674 849-1124): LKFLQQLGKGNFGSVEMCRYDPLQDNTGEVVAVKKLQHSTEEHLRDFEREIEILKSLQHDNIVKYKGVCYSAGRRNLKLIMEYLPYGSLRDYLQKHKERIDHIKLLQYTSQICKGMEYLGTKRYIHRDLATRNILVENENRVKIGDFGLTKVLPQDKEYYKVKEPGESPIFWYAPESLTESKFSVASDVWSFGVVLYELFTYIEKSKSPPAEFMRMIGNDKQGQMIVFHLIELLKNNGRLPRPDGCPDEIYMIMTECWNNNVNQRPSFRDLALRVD
In short: as §1

[4] = biological target: human JAK3 catalytic kinase (JH1) domain (Homo sapiens (Human), UniProt P52333); assay: ADP-Glo Kinase Assay, recombinant JAK3 catalytic kinase (JH1) domain; conditions: recombinant JH1 domain 0.3 nM, 4 μM ATP, JAK3-974 peptide, mean, read-out: JAK3 biochem IC50 (nM) Mean
Chain of human JAK3 catalytic kinase (JH1) domain (P52333 822-1111): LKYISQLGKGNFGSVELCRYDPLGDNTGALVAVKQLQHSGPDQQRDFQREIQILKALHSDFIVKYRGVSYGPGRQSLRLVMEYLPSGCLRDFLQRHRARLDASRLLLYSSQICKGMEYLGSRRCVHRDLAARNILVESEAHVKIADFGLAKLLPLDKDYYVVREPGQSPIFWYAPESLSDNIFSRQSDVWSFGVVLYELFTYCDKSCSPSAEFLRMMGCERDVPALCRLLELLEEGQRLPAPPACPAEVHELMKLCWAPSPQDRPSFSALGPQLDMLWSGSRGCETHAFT
In short: as §1

SMILES	IC50 [1] [nM]	IC50 [2] [nM]	IC50 [3] [nM]	IC50 [4] [nM]
Cn1cc(-c2cc3c(N4CC5CCC(C4)N5C(=O)[C@@H]4C[C@H]4F)ncnn3c2)c(F)n1 [Example 96, (3-(6-(3-fluoro-1-methyl-1H-pyrazol-4-yl)pyrrolo[2,1-f][1,2,4]triazin-4-yl)-3,8-diazabicyclo[3.2.1]octan-8-yl)((1S,2R)-2-fluorocyclopropyl)methanone]	13.7	718	422	3270
O=C([C@@H]1C[C@H]1F)N1C2CCC1CN(c1ncnn3cc(-c4ccnc(F)c4)cc13)C2 [Example 164]	48.8	447	1300	7250
O=C(C1C(F)(F)C12CC2)N1C2CCC1CN(c1ncnn3cc(-c4cnn(C(F)F)c4)cc13)C2 (stereo not drawn) [Example 10, (3-(6-(1-(difluoromethyl)-1H-pyrazol-4-yl)pyrrolo[2,1-f][1,2,4]triazin-4-yl)-3,8-diazabicyclo[3.2.1]octan-8-yl)(2,2-difluorospiro[2.2]pentan-1-yl)methanone]	207	969	4330	3220
O=C([C@@H]1C[C@H]1F)N1C2CCC1CN(c1ccnn3cc(C4CC4)cc13)C2 [Example 24, (3-(6-cyclopropylpyrrolo[1,2-b]pyridazin-4-yl)-3,8-diazabicyclo[3.2.1]octan-8-yl)((1S,2R)-2-fluorocyclopropyl)methanone]	164	2740	5900	9080
N#Cc1cc(-c2nc3c(N4CC5CCC(C4)N5C(=O)[C@@H]4C[C@H]4F)ccnc3[nH]2)ccn1 [Example 204, 4-(7-(8-((1S,2R)-2-fluorocyclopropane-1-carbonyl)-3,8-diazabicyclo[3.2.1]octan-3-yl)-3H-imidazo[4,5-b]pyridin-2-yl)picolinonitrile]	12	36	49	716
O=C([C@@H]1C[C@H]1F)N1C2CCC1CN(c1ccnn3cc(-c4ccc(F)nc4)cc13)C2 [Example 169]	1.8	47	49	288
N#Cc1cccc(-c2cc3c(N4CC5CCC(C4)N5C(=O)C4CC4)ncnn3c2)c1 [Example 176]	830	3560	10000	9890
CNc1cncc(-c2cc3c(N4CC5CCC(C4)N5C(=O)[C@@H]4C[C@H]4F)ccnn3c2)n1 [Example 127, ((1S,2R)-2-fluorocyclopropyl)(3-(6-(6-(methylamino)pyrazin-2-yl)pyrrolo[1,2-b]pyridazin-4-yl)-3,8-diazabicyclo[3.2.1]octan-8-yl)methanone]	18	211	300	3140
COc1cnc(-c2cc3c(N4CC5CCC(C4)N5C(=O)[C@@H]4C[C@H]4F)ccnn3c2)cn1 [Example 124, ((1S,2R)-2-fluorocyclopropyl)(3-(6-(5-methoxypyrazin-2-yl)pyrrolo[1,2-b]pyridazin-4-yl)-3,8-diazabicyclo[3.2.1]octan-8-yl)methanone]	54.5	405	700	7440
O=C([C@@H]1C[C@H]1F)N1C2CCC1CN(c1ncnn3cc(-c4cnn(C(F)F)c4)cc13)C2 [Example 76, (3-(6-(1-(difluoromethyl)-1H-pyrazol-4-yl)pyrrolo[2,1-f][1,2,4]triazin-4-yl)-3,8-diazabicyclo[3.2.1]octan-8-yl)((1S,2R)-2-fluorocyclopropyl)methanone]	23.1	574	850	6270
CCOC1CC1C(=O)N1C2CCC1CN(c1ncnn3cc(-c4cnn(C(F)F)c4)cc13)C2 (stereo not drawn) [Example 35, (3-(6-(1-(difluoromethyl)-1H-pyrazol-4-yl)pyrrolo[2,1-f][1,2,4]triazin-4-yl)-3,8-diazabicyclo[3.2.1]octan-8-yl)(2-ethoxycyclopropyl)methanone trifluoroacetate]	856	4660	10000	10000
O=C(N1C2CCC1CN(c1ncnn3cc(-c4cnn(C(F)F)c4)cc13)C2)C(F)(F)F [Example 86, 1-(3-(6-(1-(difluoromethyl)-1H-pyrazol-4-yl)pyrrolo[2,1-f][1,2,4]triazin-4-yl)-3,8-diazabicyclo[3.2.1]octan-8-yl)-2,2,2-trifluoroethan-1-one]	334	1030	6080	5090
COc1cc(-c2cn3nccc(N4CC5CCC(C4)N5C(=O)[C@@H]4C[C@H]4F)c3n2)ccn1 [Example 248, ((1S,2R)-2-fluorocyclopropyl)(3-(2-(2-methoxypyridin-4-yl)imidazo[1,2-b]pyridazin-8-yl)-3,8-diazabicyclo[3.2.1]octan-8-yl)methanone]	9.5	23	48	515
O=C(C1CC1)N1C2CCC1CN(c1c(F)cnn3cc(-c4cnn(C(F)F)c4)cc13)C2 [Example 140, cyclopropyl(3-(6-(1-(difluoromethyl)-1H-pyrazol-4-yl)-3-fluoropyrrolo[1,2-b]pyridazin-4-yl)-3,8-diazabicyclo[3.2.1]octan-8-yl)methanone]	56	834	1480	738
COc1cc(-c2cc3c(N4CC5CCC(C4)N5C(=O)[C@@H]4C[C@H]4F)ccnn3c2)ncn1 [Example 105, ((1S,2R)-2-fluorocyclopropyl)(3-(6-(6-methoxypyrimidin-4-yl)pyrrolo[1,2-b]pyridazin-4-yl)-3,8-diazabicyclo[3.2.1]octan-8-yl)methanone]	28.6	356	190	6900
Cn1cc(-c2cc3c(N4CC5CCC(C4)N5C(=O)[C@@H]4CC4(F)F)ccnn3c2)cn1 [Example 22, ((S)-2,2-difluorocyclopropyl)(3-(6-(1-methyl-1H-pyrazol-4-yl)pyrrolo[1,2-b]pyridazin-4-yl)-3,8-diazabicyclo[3.2.1]octan-8-yl)methanone]	1.8	55	32	445
Cc1ccc(-c2cc3c(N4CC5CCC(C4)N5C(=O)[C@@H]4C[C@H]4F)ccnn3c2)cn1 [Example 113, ((1S,2R)-2-fluorocyclopropyl)(3-(6-(6-methylpyridin-3-yl)pyrrolo[1,2-b]pyridazin-4-yl)-3,8-diazabicyclo[3.2.1]octan-8-yl)methanone]	3	69	56	672
Cn1cc(-c2nc3c(N4CC5CCC(C4)N5C(=O)[C@@H]4C[C@H]4F)ccnc3[nH]2)cn1 [Example 200, ((1S,2R)-2-fluorocyclopropyl)(3-(2-(1-methyl-1H-pyrazol-4-yl)-3H-imidazo[4,5-b]pyridin-7-yl)-3,8-diazabicyclo[3.2.1]octan-8-yl)methanone]	0.4	9	6	78
Cn1cc(-c2cc3c(N4CC5CCC(C4)N5C(=O)[C@H]4C[C@H]4F)ncnn3c2)cn1 (racemic) [Example 60, Rac-((1R,2R)-2-fluorocyclopropyl)(3-(6-(1-methyl-1H-pyrazol-4-yl)pyrrolo[2,1-f][1,2,4]triazin-4-yl)-3,8-diazabicyclo[3.2.1]octan-8-yl)methanone]	563	1340	8090	3080
O=C([C@@H]1C[C@H]1F)N1C2CCC1CN(c1ccnn3cc(-c4ccnc(C(F)F)c4)cc13)C2 [Example 101, (3-(6-(2-(difluoromethyl)pyridin-4-yl)pyrrolo[1,2-b]pyridazin-4-yl)-3,8-diazabicyclo[3.2.1]octan-8-yl)((1S,2R)-2-fluorocyclopropyl)methanone]	1.4	22	27	541
Cc1cc(-c2cc3c(N4CC5CCC(C4)N5C(=O)[C@@H]4C[C@H]4F)ccnn3c2)on1 [Example 173]	2.4	81	37	793
Cn1cc(-c2nc3c(N4CC5CCC(C4)N5C(=O)C4CC4)ccnc3[nH]2)cn1 [Example 199, cyclopropyl(3-(2-(1-methyl-1H-pyrazol-4-yl)-3H-imidazo[4,5-b]pyridin-7-yl)-3,8-diazabicyclo[3.2.1]octan-8-yl)methanone]	6.2	92	56	219
COc1ccc(-c2cc3c(N4CC5CCC(C4)N5C(=O)C4CC4)ncnn3c2)cn1 [Example 178]	719	2020	10000	6270
Cc1cncc(-c2cc3c(N4CC5CCC(C4)N5C(=O)[C@@H]4C[C@H]4F)ccnn3c2)n1 [Example 130, ((1S,2R)-2-fluorocyclopropyl)(3-(6-(6-methylpyrazin-2-yl)pyrrolo[1,2-b]pyridazin-4-yl)-3,8-diazabicyclo[3.2.1]octan-8-yl)methanone]	52.8	806	674	5420
